According to the NIST ThermoML archive (doi:10.1016/j.fluid.2013.07.044):

Assay: Boiling temperature at pressure P
Conditions: Liquid, Ebulliometric method (Recirculating still)

C1CCCCC1 [cyclohexane]
Conditions | Boiling temperature at pressure P [°C]
24.08 kPa | 39.63
30.7 kPa | 45.81
38.72 kPa | 51.92
46.85 kPa | 57.17
55.2 kPa | 61.86
61.52 kPa | 65.06
69.06 kPa | 68.52
77.87 kPa | 72.22
85.44 kPa | 75.13
91.68 kPa | 77.38
101.32 kPa | 80.63

CCO [ethanol]
Conditions | Boiling temperature at pressure P [°C]
20.14 kPa | 42.46
30.24 kPa | 50.67
40.31 kPa | 56.77
50.39 kPa | 61.69
70.33 kPa | 69.34
80.63 kPa | 72.62
85.67 kPa | 74.11
98.45 kPa | 77.53
100.79 kPa | 78.13
110.86 kPa | 80.53
120.93 kPa | 82.77
131.02 kPa | 84.84
141.1 kPa | 86.79
151.1 kPa | 88.62
160 kPa | 90.41
170 kPa | 92.09
180 kPa | 93.62
190 kPa | 95.16
200 kPa | 96.60

CCCCCCC [heptane]
Conditions | Boiling temperature at pressure P [°C]
10.23 kPa | 35.76
16.91 kPa | 47.28
23.5 kPa | 55.43
35.39 kPa | 66.27
56.16 kPa | 79.51
67.57 kPa | 85.09
74.44 kPa | 88.22
79.37 kPa | 90.30
86.51 kPa | 93.16
100.11 kPa | 98.06

CCCCCCCC [octane]
Conditions | Boiling temperature at pressure P [°C]
22.95 kPa | 79.68
29.98 kPa | 87.07
37.87 kPa | 93.74
44.82 kPa | 98.74
52.81 kPa | 103.78
59.85 kPa | 107.72
66.66 kPa | 111.21
75.23 kPa | 115.23
82.72 kPa | 118.44
89.51 kPa | 121.17
99.01 kPa | 124.72

CCCO [propan-1-ol]
Conditions | Boiling temperature at pressure P [°C]
69.79 kPa | 87.71
74.92 kPa | 89.5
79.6 kPa | 90.96
84.8 kPa | 92.6
89.78 kPa | 93.99
94.77 kPa | 95.37
99.7 kPa | 96.67
105.14 kPa | 98.2
110.1 kPa | 99.27
113.19 kPa | 100.00
120.75 kPa | 101.73
130.1 kPa | 103.76
171 kPa | 111.42
199.9 kPa | 115.99
228.5 kPa | 120.00
229.9 kPa | 120.20
260 kPa | 123.98
290 kPa | 127.42
310 kPa | 129.56
330 kPa | 131.59
350 kPa | 133.54
380 kPa | 136.28
400 kPa | 138.03
420 kPa | 139.69
450 kPa | 142.08
480 kPa | 144.37
500 kPa | 145.81
520 kPa | 147.22
530 kPa | 147.91
550 kPa | 149.26
561.5 kPa | 150.01
